Reference: patent publication US12629424B2, “Targeting Pleckstrin-2 for treating cancer” (Northwestern University, priority 2018, dated 2026)
pIC50, pKd: −log10 of the molar value.

What was measured:
GST-Plek2 [1] = target: T1, GST-Plek2 (Homo sapiens, UniProt Q9NYT0); test: isothermal titration calorimetry (ITC) of NUP-17d and its enantiomers with Plek2; assay type: binding; details: PBS with 0.5% DMSO, 200 μM compound into 20 μM GST-Plek2; for pKd: FIG. 17, general method: MicroCal ITC200, 25° C
T1 construct: made in house
T1 sequence (Q9NYT0 1-353): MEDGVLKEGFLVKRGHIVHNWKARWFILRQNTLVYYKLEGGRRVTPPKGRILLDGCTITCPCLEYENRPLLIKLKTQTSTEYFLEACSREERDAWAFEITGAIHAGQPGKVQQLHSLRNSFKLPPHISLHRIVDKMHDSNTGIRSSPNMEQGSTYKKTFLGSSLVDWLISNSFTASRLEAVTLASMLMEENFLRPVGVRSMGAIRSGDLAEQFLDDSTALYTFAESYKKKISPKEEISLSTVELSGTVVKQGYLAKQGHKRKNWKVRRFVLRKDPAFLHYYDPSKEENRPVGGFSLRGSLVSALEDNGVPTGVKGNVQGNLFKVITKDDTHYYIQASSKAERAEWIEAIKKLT
Protocol: (§1) FIG. 4. NUP-17 directly targets and binds to Plek2. (A) Plek2 was overexpressed in mouse fetal liver Ter119 negative erythroblasts. NUP-17 (40 μM) were added in the control cells and Plek2 overexpressed cells. Cell number was calculated 48 hours after culture. (B) Plek2 was overexpressed in Cos-7 cells. Phalloidin 647 was used to stain actin in the indicated cells. 10 μM of NUP-17 was used. (C) Quantitative analysis of B. (D) ITC experiments using the microCal ITC200 instrument. 200 μM NUP-17 was titrated into a solution of 20 μM GST control or GST-Plek2. *P<0.05; *** P<0.001. 17 represents NUP-17.
(§2) FIG. 17. Isothermal titration calorimetry (ITC) experiments of NUP-17d and its enantiomers. -17-d: delta H=−1.9 kcal/mol delta S=+22.9 cal/molK; -17-1b: delta H=−2.2 kcal/mol delta S=+22.8 cal/molK; -17-2b: delta H=−1.5 kcal/mol delta S=+24.3 cal/molK; -17-1a: delta H=−5.3 kcal/mol delta S=+7.3 cal/molK; and -17-2a: delta H=−4.2 kcal/mol delta S=+13.9 cal/molK.
(§3) To confirm that the inhibitory effect of NUP-17 on the proliferation and differentiation of fetal liver erythroid cells is due to Plek2 binding, we overexpressed Plek2 in the fetal liver cells and treated the cells with NUP-17. […] In addition, we also overexpressed Plek2 in Cos-7 cells, which induced prominent lamellipodia formation as previously reported (13).
Biophysical Assays and Counter-Screening. To confirm the interaction of the optimized compounds with Plek2, we will perform isothermal calorimetry (ITC) using the recombinant protein GST-Plek2 or Flag-tagged Plek2 we have produced. Specifically, MicroCal ITC200 instrument (GE Healthcare) with the jacket temperature will set at 25° C. The protein and our compound solutions will be prepared in PBS with 0.5% DMSO. Titrations of 200 μM compound into 20 μM GST-Plek2 solutions will be sufficient for 15 injections of 2.5 μl each with 120 seconds spacing between injections and a mixing speed at 900 rpm. An initial 0.1 μl injection will subsequently be removed during data analysis. A control experiment will be performed by titrating 200 μM compound into a solution of 20 μM GST. […]

[2] = tested on: mouse fetal liver erythroid progenitors; test: Proliferation of mouse fetal liver erythroid progenitors cultured in erythropoietin containing medium (Plek2 functional screening system); assay type: cell-based; details: mouse fetal liver erythroblasts, Epo medium
Protocol: FIG. 3. NUP-17 inhibits Plek2 function in fetal liver erythropoiesis. (A) Mouse Ter119 (a mature erythroid cell marker) negative erythroblasts were purified and cultured for two days (D0-D2). The protein levels of Plek2 and Hsc70 loading control were analyzed by a Western blot assay. (B) The structure of NUP-17. (C-D) The proliferation and enucleation (DNA negative) profiles of cells from A treated with different concentration of NUP-17 for 48 hours. (E) Simulated Plek2 DEP domain interaction with NUP-17 using Schrodinger software. Amino acids that are potentially critical for the interaction are highlighted in yellow. *P<0.05; ** P<0.01; *** P<0.001.
as §1, with “200 μM NUP-17 was titrated into a solution of 20 μM GST control or GST-Plek2. *P<0.05; *** P<0.001. 17 represents NUP-17.” left out
FIG. 5. […] (A) NUP-17d was analyzed for the inhibitory effects on fetal liver erythroblasts as in FIG. 3. […] (D) Quantitative analysis of C. **P<0.01; *** P<0.001. […]
FIG. 11. […] Analogs of NUP-17d were analyzed for their effect on fetal liver erythroblast proliferation as in FIG. 3. […]

[3] = tested on: Plek2-overexpressed Cos-7 cells; test: Lamellipodia formation assay in Plek2-overexpressed Cos-7 cells (phalloidin actin stain); assay type: cell-based; details: 10 μM
Protocol: as §1
FIG. 5. Identification of a potent analog of NUP-17. (A) NUP-17d was analyzed for the inhibitory effects on fetal liver erythroblasts as in FIG. 3. Indicated doses were used. (B) The structure of NUP-17d. (C) Plek2 was overexpressed in Cos-7 cells. Phalloidin 647 was used to stain actin in the indicated cells. 10 μM of NUP-17 and NUP-17d were used. (D) Quantitative analysis of C. **P<0.01; *** P<0.001. 17 and 17d represent NUP-17 and NUP-17d, respectively.
To confirm that the inhibitory effect of NUP-17 on the proliferation and differentiation of fetal liver erythroid cells is due to Plek2 binding, we overexpressed Plek2 in the fetal liver cells and treated the cells with NUP-17. […]

GST-Plek2 [4] = target: T1, GST-Plek2; test: Isothermal titration calorimetry (ITC) binding to GST-tagged Plek2; details: FIG. 17
Protocol: as §1, §2, §3
Biophysical Assays and Counter-Screening. […]

Plek2 = target: T2, Plek2 (Homo sapiens, UniProt Q9NYT0); test: Plek2-lipid binding (protein-lipid overlay); details: data not shown
T2 construct: we examined the ability of full-length protein to adhere to various phospholipids
T2 sequence (Q9NYT0 1-353): T1 sequence (Q9NYT0 1-353)
Protocol: (§4) FIG. 7. Plek2 binds to PtdIns(3,4)P2 and is critical for the PI3K signaling pathway. […] (B) Plek2 membrane association and cell spreading are PI3K dependent. Jurkat cells expressing GFP fused to the amino-terminus of wild-type Plek2 were plated on fibronectin. Real-time confocal imaging of live cells was performed. Shown is a cell expressing Plek2 before and after inhibition of PI3K with 100 nM wortmannin. (C) Bone marrow lineage negative cells from the indicated mice were treated with 2 units erythropoietin for the indicated amount of time (minutes). The level of Phospho-Akt and total Akt were analysis by Western blot assays. (D) Same as C except wild type bone marrow cells were used. 10 μM NUP-17d was used. The levels of the indicated proteins were analyzed by Western blot assays. (E) Kaplan-Meier survival analysis of indicated mice. Ptenfl/fl mice were crossed with Mx-Cre and Plek2 whole body knockout mice. The deletion of Pten in the hematopoietic tissues was induced by poly-IC injection. N=5 in each group. P=0.0067 between Ptenfl/flMx-Cre and Ptenfl/flMx-Cre, Plek2 KO. (F) Hematoxylin and eosin stain of the lungs from representative mice in E. Scale bar: 100 μm.
Rationale and Preliminary Data. […] To define the lipid binding specificity of Plek2, we examined the ability of full-length protein to adhere to various phospholipids.

phosphorylation of Akt = test: Akt phosphorylation in erythropoietin-treated bone marrow lineage negative cells (Western blot); assay type: cell-based, mouse; details: wild type bone marrow lineage negative cells, 10 μM
Protocol: as §4
To further determine the role of Plek2 in PI3K pathway, we overexpressed GFP-fusion Plek2 in Jurkat cells. […]

[5] = tested on: Epo-induced myeloproliferation in wild-type mice; test: Erythropoietin (Epo) injection mouse model; assay type: in vivo
JAK2V617F knockin mice = test: JAK2V617F knockin MPN mouse model; assay type: in vivo; details: 25 mg/kg once every two days, one month
Protocol: FIG. 15A and FIG. 15B. Compound NUP-17d ameliorates myeloproliferation and thrombosis in JAK2^V617F knockin mice. FIG. 15A. RBC and WBC count of indicated mice after NUP-17d treatment. Two-month-old JAK2^V617F knockin mice were treated with NUP-17d once every two days for three weeks. Wild type (WT) littermate control mice were used for comparison *P<0.05; ** P<0.01; *** P<0.001. FIG. 15B. H&E stain of the spleen and lung sections. Inserted panels with high magnification reveal vascular occlusions. Scale bars: 100 μm.
We tested the effects of Plek2 inhibitors in the JAK2^V617F knockin MPN mouse model. (See FIGS. 15A and 15B). The same dosage and dosing schedule of NUP-17d (25 mg/kg, once every two days) were applied to JAK2^V617F knockin mice as those applied to the Epo model. We have treated the mice for one month. […] (See FIG. 15A). […] (See FIG. 15B).

[6] = 40 mg/kg every 2 days for 8 days

In the case of `CN1CCN([C@H](c2ccc(Cl)cc2)[C@@H](O)C(=O)c2c[nH]c3ccccc23)CC1` [17d-1a], the Kd (GST-Plek2 [1]; FIG. 17, value printed in uM, general method: MicroCal ITC200, 25° C) was 2.12 µM.
`CN1CCN([C@@H](c2ccc(Cl)cc2)[C@H](O)C(=O)c2c[nH]c3ccccc23)CC1` [17d-1b] showed a pKd (GST-Plek2 [1]) of 6.45.
Compound `CN1CCN(C(c2ccc(Cl)cc2)C(O)C(=O)c2c[nH]c3ccccc23)CC1` (stereo not shown) [17d] has a pKd (GST-Plek2 [1]) of 6.40.
In the case of `CN1CCN(C(c2ccc(Cl)cc2)C(O)C(=O)c2c[nH]c3ccccc23)CC1` (stereo not shown) [NUP-17d], the pIC50 [2] was greater than 5.00, the “reversal of lamellipodia in Plek2 overexpressed Cos-7 cells” value [3] was “more potent inhibition” and the “ITC delta H” value (GST-Plek2 [4]) was -1.9 kcal/mol. The “ITC delta S” value (GST-Plek2 [4]) was “+22.9 cal/molK”, the “disruption of Plek2-lipid binding” value (Plek2) was “did not disrupt Plek2-lipid binding” and the “phosphorylation of Akt” value (phosphorylation of Akt) was “significantly inhibited”. The “Epo-induced erythrocytosis in spleen red pulp and lung vasculature (histology)” value [5, 6] was “markedly ameliorated”, the Epo-induced leukocytosis [5, 6] was “significantly reduced” and the Epo-induced reticulocytosis [5, 6] was “significantly reduced”. The Epo-induced splenomegaly [5, 6] was “significantly reduced”, the Epo-induced vascular occlusions [5, 6] was “significantly reduced” and the tolerability ([5]; 40 mg/kg, 2 days, preliminary studies) was “well-tolerated”. For the same compound, the “red blood cell count” value ([5]; Epo 5,000 U/kg every 2 days, compound 40 mg/kg every 2 days for 8 days, 3 weeks) was “did not significantly reduce”, the “hematologic or other abnormalities in treated mice” value ([5]; during the experiments) was “no hematologic or other abnormalities” and the WBC count (JAK2V617F knockin mice) was “largely normalized”. The “red blood cell count” value (JAK2V617F knockin mice) was “significantly reduced”, the “side effects with the treatment” value (JAK2V617F knockin mice) was “no gross side effects” and the “spleen size and extramedullary erythropoiesis” value (JAK2V617F knockin mice) was “markedly reduced”. For the same compound, the “vascular occlusions in the lungs” value (JAK2V617F knockin mice) was “dramatically ameliorated”.
